This note sets out measurements from patent US11639530B2, “CD133 related to anticancer agent resistance in colon cancer and use thereof” (KOREA UNIVERSITY RESEARCH AND BUSINESS FOUNDATION, priority 2019, dated 2023).

One experiment has as its system liver cancer cell line. Put plainly: Microscopic analysis of microvesicle and TNT formation (WGA-488/DAPI staining, confocal). Type of experiment: cell-based. On the procedure:
The relationship between EGF and microvesicle and TNT formation was investigated by microscopic analysis. Specifically, after 14 hours of EGF treatment, cells were fixed with 4% paraformaldeyde and treated with WGA-488 and DAPI for 10 minutes to stain the cell membrane and nucleus. Fluorescence intensity was measured using an LSM700 Meta confocal microscope.

For experiment [1], the system named is CD133 expression in a liver cancer cell line. The experiment in a line: CD133 expression (Western blotting) and CD133 ORF promoter luciferase activity after EGF treatment. Type of experiment: cell-based. Here is the method:
After treatment with an inhibitor against an EGF downstream signaling molecule, CD133 expression was investigated. Specifically, for transfection and Western blotting, a specific gene (plasmid vector or siRNA) was expressed in cells using a transfection reagent. For general plasmid vector transfection, 24 hours after transfection, cells were harvested, and for siRNA transfection, 48 hours after transfection, cells were harvested. For Western blotting, the harvested cells were lysed in RIPA buffer, and centrifuged at 12,000 g for 20 minutes at 4° C., followed by collecting a supernatant. The collected supernatant was subjected to SDS-PAGE gel electrophoresis, and transferred onto a nitrocellulose membrane, followed by detecting the expression of a desired protein using suitable antibodies. As a result, it was observed that NF-κB is involved in EGF-induced CD133 expression (FIG. 1B). […] Cells were simultaneously transfected with the luciferase vector and a Renilla plasmid vector for quantification. Twenty-four hours after transfection, the cells were treated with EGF for 14 hours, lysed with lysis buffer and centrifuged to obtain a supernatant, and then luciferase activity was measured using the Luminometer 20/20 (FIG. 1D).

For EGF: epithelial growth factor (EGF), the “microvesicle and TNT formation between cells” value with liver cancer cell line is “microvesicle and TNT formation increases between cells”. Moreover, the CD133 expression regulation entry in experiment [1] is “activates NF-κB and regulates CD133 expression at the transcription level”.
